Reference: ChEMBL document CHEMBL3875212, “Novel thrombopoietin mimetic peptides bind c-Mpl receptor: Synthesis, biological evaluation and molecular modeling” (Bioorg Med Chem, 2017)
Activity calls are given as the source filed them. No cut-off for these calls is given here. Residues, ends and D or L forms follow the SMILES beside them.

Molecular target: T1, Thrombopoietin receptor (Homo sapiens) (UniProt P40238)
T1 sequence (whole entry): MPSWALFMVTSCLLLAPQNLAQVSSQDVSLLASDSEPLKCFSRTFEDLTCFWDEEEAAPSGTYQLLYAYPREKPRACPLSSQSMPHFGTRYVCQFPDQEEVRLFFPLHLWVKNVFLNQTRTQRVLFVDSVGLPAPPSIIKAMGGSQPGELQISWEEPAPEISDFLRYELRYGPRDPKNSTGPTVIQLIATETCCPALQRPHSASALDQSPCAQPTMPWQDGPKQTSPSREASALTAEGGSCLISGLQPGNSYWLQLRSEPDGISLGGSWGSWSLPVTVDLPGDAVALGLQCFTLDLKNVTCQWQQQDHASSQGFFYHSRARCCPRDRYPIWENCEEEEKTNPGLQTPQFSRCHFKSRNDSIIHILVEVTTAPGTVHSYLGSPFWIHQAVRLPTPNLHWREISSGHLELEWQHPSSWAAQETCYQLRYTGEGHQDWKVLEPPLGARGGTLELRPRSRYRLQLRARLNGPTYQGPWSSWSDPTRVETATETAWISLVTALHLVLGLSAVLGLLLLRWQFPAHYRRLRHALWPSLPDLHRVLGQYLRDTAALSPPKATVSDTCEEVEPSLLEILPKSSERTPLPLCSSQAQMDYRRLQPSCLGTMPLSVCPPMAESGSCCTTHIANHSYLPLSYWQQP
Test: Binding affinity to c-Mpl (unknown origin) expressed in […] NIH-3T3 cells after 48 hrs by dual-glo luciferase reporter gene assay relative to control
Format: cell-based
Conditions: NIH3T3

| Activity | Structure (SMILES) |
| --- | --- |
| Active | CC[C@H](C)[C@H](N)C(=O)N[C@@H](CCC(=O)O)C(=O)NCC(=O)N1CCC[C@H]1C(=O)N[C@H](C(=O)N[C@@H](CC(C)C)C(=O)N[C@@H](CCCNC(=N)N)C(=O)N[C@@H](CCC(N)=O)C(=O)N[C@@H](Cc1c[nH]c2ccccc12)C(=O)N[C@@H](CC(C)C)C(=O)N[C@@H](C)C(=O)N[C@@H](C)C(=O)N[C@@H](CCCNC(=N)N)C(=O)N[C@@H](C)C(=O)NCC(=O)NCC(=O)NCC(=O)NCC(=O)N[C@@H](CO)C(=O)NCC(=O)NCC(=O)NCC(=O)N[C@@H](CO)C(=O)NCC(=O)N[C@H](C(=O)N[C@@H](CCC(=O)O)C(=O)NCC(=O)N1CCC[C@H]1C(=O)N[C@H](C(=O)N[C@@H](CC(C)C)C(=O)N[C@@H](CCCNC(=N)N)C(=O)N[C@@H](CCC(N)=O)C(=O)N[C@@H](Cc1c[nH]c2ccccc12)C(=O)N[C@@H](CC(C)C)C(=O)N[C@@H](C)C(=O)N[C@@H](C)C(=O)N[C@@H](CCCNC(=N)N)C(=O)N[C@@H](C)C(=O)O)[C@@H](C)O)[C@@H](C)CC)[C@@H](C)O (H-IEGPTLRQWLAARAGGGGSGGGSGIEGPTLRQWLAARA-OH) |
| Active | CC[C@H](C)[C@H](N)C(=O)N[C@@H](CCC(=O)O)C(=O)NCC(=O)N1CCC[C@H]1C(=O)N[C@H](C(=O)N[C@@H](CC(C)C)C(=O)N[C@@H](CCCNC(=N)N)C(=O)N[C@@H](CCC(N)=O)C(=O)N[C@@H](Cc1c[nH]c2ccccc12)C(=O)N[C@@H](CC(C)C)C(=O)N[C@@H](C)C(=O)N[C@@H](C)C(=O)N[C@@H](CCCNC(=N)N)C(=O)N[C@@H](C)C(=O)NCC(=O)NCC(=O)NCC(=O)N[C@@H](CO)C(=O)NCC(=O)N[C@H](C(=O)N[C@@H](CCC(=O)O)C(=O)NCC(=O)N1CCC[C@H]1C(=O)N[C@H](C(=O)N[C@@H](CC(C)C)C(=O)N[C@@H](CCCNC(=N)N)C(=O)N[C@@H](CCC(N)=O)C(=O)N[C@@H](Cc1c[nH]c2ccccc12)C(=O)N[C@@H](CC(C)C)C(=O)N[C@@H](C)C(=O)N[C@@H](C)C(=O)N[C@@H](CCCNC(=N)N)C(=O)N[C@@H](C)C(=O)O)[C@@H](C)O)[C@@H](C)CC)[C@@H](C)O (H-IEGPTLRQWLAARAGGGSGIEGPTLRQWLAARA-OH) |
| Active | CC[C@H](C)[C@H](N)C(=O)N[C@@H](CCC(=O)O)C(=O)NCC(=O)N1CCC[C@H]1C(=O)N[C@H](C(=O)N[C@@H](CC(C)C)C(=O)N[C@@H](CCCNC(=N)N)C(=O)N[C@@H](CCC(N)=O)C(=O)N[C@@H](Cc1c[nH]c2ccccc12)C(=O)N[C@@H](CC(C)C)C(=O)N[C@@H](C)C(=O)N[C@@H](C)C(=O)N[C@@H](CCCNC(=N)N)C(=O)N[C@@H](C)C(=O)NCC(=O)NCC(=O)N1CCC[C@H]1C(=O)N[C@@H](CO)C(=O)NCC(=O)N[C@H](C(=O)N[C@@H](CCC(=O)O)C(=O)NCC(=O)N1CCC[C@H]1C(=O)N[C@H](C(=O)N[C@@H](CC(C)C)C(=O)N[C@@H](CCCNC(=N)N)C(=O)N[C@@H](CCC(N)=O)C(=O)N[C@@H](Cc1c[nH]c2ccccc12)C(=O)N[C@@H](CC(C)C)C(=O)N[C@@H](C)C(=O)N[C@@H](C)C(=O)N[C@@H](CCCNC(=N)N)C(=O)N[C@@H](C)C(=O)O)[C@@H](C)O)[C@@H](C)CC)[C@@H](C)O (H-IEGPTLRQWLAARAGGPSGIEGPTLRQWLAARA-OH) |
